The record followed here is ChEMBL document CHEMBL3286191, “Exploring structural motifs necessary for substrate binding in the active site of Escherichia coli pantothenate kinase” (Bioorg Med Chem, 2014).

The source made the active and inactive calls. No cut-off for these calls is given here. A value given as a limit tells only on which side of the number the result lay.

Broadly, the Km is the substrate concentration at which the rate is half of its maximum. For orientation: kcat means the maximal rate divided by the concentration of active sites. For orientation: kcat/Km means the second-order rate constant that governs catalysis at low substrate concentration.

Assay [1] has as its system Escherichia coli. Nature of the assay: Activity of purified Escherichia coli pantothenate kinase by spectrophotometry.
Assay [2] relates to Escherichia coli. Put plainly: Ratio of kcat to Km for purified Escherichia coli pantothenate kinase by spectrophotometry.
Assay [3] concerns Escherichia coli. Nature of the assay: Activity of purified Escherichia coli pantothenate kinase up to 1 uM by spectrophotometry.
For assay [4], the system named is Escherichia coli. Nature of the assay: Inhibition of purified Escherichia coli pantothenate kinase using pantothenate as substrate at 0.625 to 20 mM by spectrophotometry.

For the molecule `CC(C)(CO)[C@@H](O)C(=O)NCCC(=O)N1CCc2ccccc21`, in the assay with Escherichia coli [1], the Km turned out to be 400 µM and the kcat was determined as 0.18 s⁻¹. Also, in the assay on Escherichia coli [2], the specificity constant (kcat/Km) turned out to be 0.4 mM⁻¹ s⁻¹.
Consider `CC(C)(CO)[C@@H](O)C(=O)NCCC(=O)NCCS`, for which, in the assay on Escherichia coli [1], the Km is 60 µM and the kcat came out at 1.03 s⁻¹. For the same molecule, in the assay on Escherichia coli [2], the kcat/Km worked out at 17 mM⁻¹ s⁻¹.
As to `CC(C)(CO)[C@@H](O)C(=O)NCCCNC(=N)Nc1ccc(Cl)cc1`, the result in the assay with Escherichia coli [3] was inactive. Also, the inhibition result in the assay with Escherichia coli [4] is “inactive”.
As to `C=CC[C@](C)(CO)[C@@H](O)C(=O)NCCC(=O)NCCCCC`, in the assay with Escherichia coli [1], the Km came to 590 µM and the kcat was 0.89 s⁻¹. For the same molecule, the kcat/Km in the assay on Escherichia coli [2] amounted to 1.5 mM⁻¹ s⁻¹.
As for `CC(C)(CO)[C@@H](O)C(=O)NCCC(=O)NCCCN1CCOCC1`, in the assay with Escherichia coli [1], the Km worked out at 350 µM and the kcat was found to be 1.03 s⁻¹. Besides, in the assay on Escherichia coli [2], the kcat/Km was 2.9 mM⁻¹ s⁻¹.
In the same order, the values of `CCCCCNC(=O)CCNC(=O)[C@H](O)C(C)(C)CO` are 36 µM, 0.93 s⁻¹ and 26 mM⁻¹ s⁻¹.
The corresponding values for `CCCCCNC(=O)CNC(=O)CCNC(=O)[C@H](O)C(C)(C)CO` are 120 µM, 1.12 s⁻¹ and 10 mM⁻¹ s⁻¹.
Consider `CCCCCn1cc(CNC(=O)[C@H](O)C(C)(C)CO)nn1`, for which, in the assay with Escherichia coli [1], the Km was found to be 190 µM and the kcat came to 0.96 s⁻¹. Also, the kcat/Km with Escherichia coli [2] was 5.1 mM⁻¹ s⁻¹.
The corresponding values for `CCCCCNC(CNC(=O)[C@H](O)C(C)(C)CO)C(=O)O` (some centres not stated) are 700 µM, 0.23 s⁻¹ and 0.3 mM⁻¹ s⁻¹.
In the same order, the values of `CC(C)(CO)[C@@H](O)C(=O)NCCC(=O)NCCc1ccccn1` are 110 µM, 1.15 s⁻¹ and 11 mM⁻¹ s⁻¹.
On to `CC(C)(CO)[C@@H](O)C(=O)NCCCOc1cc(Cl)ccc1Oc1ccc(Cl)cc1Cl`, for which, in the assay with Escherichia coli [3], the result was inactive. Further, the inhibition result in the assay on Escherichia coli [4] is “inactive”.
Regarding `CC(C)(CO)[C@@H](O)C(=O)NCCC(=O)Nc1cc(Cl)ccc1Oc1ccc(Cl)cc1Cl`, the result in the assay with Escherichia coli [3] was inactive. For the same molecule, the inhibition entry in the assay on Escherichia coli [4] was “inactive”.
As to `C#CC[C@](C)(CO)[C@@H](O)C(=O)NCCC(=O)NCCCCC`, in the assay on Escherichia coli [1], the Km stood at 110 µM and the kcat was determined as 1.04 s⁻¹. Besides, the kcat/Km with Escherichia coli [2] is 9 mM⁻¹ s⁻¹.
As to `CN(C)CCCNCCCNC(=O)CCNC(=O)[C@H](O)C(C)(C)CO`, the result in the assay with Escherichia coli [3] was inactive. In the assay on Escherichia coli [4], the inhibition result is “inactive”.
`CC(C)(CO)[C@@H](O)C(=O)NCCC(=O)O`: in the assay on Escherichia coli [1], the Km is 21 µM and the kcat is 1.07 s⁻¹. In addition, the kcat/Km in the assay with Escherichia coli [2] was 50 mM⁻¹ s⁻¹.
The corresponding values for `CC(C)(CO)[C@@H](O)C(=O)NCCC(=O)NCc1cccnc1` are 33 µM, 1.24 s⁻¹ and 38 mM⁻¹ s⁻¹.
The corresponding values for `CC(C)(CO)[C@@H](O)C(=O)NCCC(=O)Nc1ccccc1` are 43 µM, 1.02 s⁻¹ and 24 mM⁻¹ s⁻¹.
In the same order, the values of `CC(C)(CO)[C@@H](O)C(=O)NCCC(=O)NCCCn1ccnc1` are 22 µM, 0.46 s⁻¹ and 21 mM⁻¹ s⁻¹.
For the molecule `CC(C)(CO)[C@@H](O)C(=O)NCCC(=O)Nc1ccncn1`, in the assay on Escherichia coli [1], the Km came out at 450 µM and the kcat was determined as 1.44 s⁻¹. In addition, the kcat/Km with Escherichia coli [2] came out at 3.2 mM⁻¹ s⁻¹.
Take `CCCCCNC(=O)CCNC(=O)[C@H](O)[C@](C)(CC)CO`: in the assay with Escherichia coli [1], the Km was determined as 230 µM and the kcat amounted to 1.17 s⁻¹. Further, the kcat/Km in the assay on Escherichia coli [2] came to 5.1 mM⁻¹ s⁻¹.
With `CC(C)(CO)[C@@H](O)C(=O)NCCC(=O)NCC1CCNCC1`, in the assay with Escherichia coli [1], the Km is > 1000 µM and the kcat turned out to be 1.19 s⁻¹. Further, in the assay with Escherichia coli [2], the kcat/Km is 0.5 mM⁻¹ s⁻¹.
In the same order, the values of `CC(C)(CO)[C@@H](O)C(=O)NCCC(=O)N1Cc2ccccc2C1` are 200 µM, 0.45 s⁻¹ and 1.9 mM⁻¹ s⁻¹.
For `C=CCC[C@](C)(CO)[C@@H](O)C(=O)NCCC(=O)NCCCCC`, in the assay on Escherichia coli [3], the outcome was inactive. Besides, the inhibition result in the assay on Escherichia coli [4] was “inactive”.
As to `Cc1cccnc1NC(=O)CCNC(=O)[C@H](O)C(C)(C)CO`, in the assay on Escherichia coli [1], the Km came to 39 µM and the catalytic constant (kcat) was determined as 0.78 s⁻¹. The kcat/Km in the assay with Escherichia coli [2] is 20 mM⁻¹ s⁻¹.
As for `CCCCCNC(=O)CCNC(=O)[C@H](O)[C@@](C)(CO)CCCO`, the result in the assay with Escherichia coli [3] was inactive. Besides, the inhibition result with Escherichia coli [4] is “inactive”.
On to `CC(C)(CO)[C@@H](O)C(=O)NCCS(=O)(=O)O`, for which the outcome in the assay with Escherichia coli [3] was inactive. The inhibition result with Escherichia coli [4] is “inactive”.
Turning to `CCCCCNC(=O)CNCCCNC(=O)[C@H](O)C(C)(C)CO`, in the assay with Escherichia coli [1], the Km is 1200 µM and the kcat was found to be 0.13 s⁻¹. In the assay on Escherichia coli [2], the kcat/Km turned out to be 0.1 mM⁻¹ s⁻¹.
In the same order, the values of `CC(C)(CO)[C@@H](O)C(=O)NCCC(=O)NCCCc1ccccc1` are 32 µM, 1.13 s⁻¹ and 35 mM⁻¹ s⁻¹.
In the case of `CN(C)CCCNC(=O)CCNC(=O)[C@H](O)C(C)(C)CO`, the outcome with Escherichia coli [3] was inactive. Also, the inhibition entry in the assay with Escherichia coli [4] is “inactive”.
As for `CC(C)(CO)[C@@H](O)C(=O)NCCC(=O)NCc1ccncc1`, in the assay with Escherichia coli [1], the Km stood at 130 µM and the kcat came out at 0.94 s⁻¹. Besides, in the assay on Escherichia coli [2], the kcat/Km stood at 7 mM⁻¹ s⁻¹.
In the same order, the values of `CC(C)(CO)[C@@H](O)C(=O)NCCC(=O)NCCN1CCNCC1` are > 1000 µM, 0.75 s⁻¹ and 0.3 mM⁻¹ s⁻¹.
In the same order, the values of `CC(C)(CO)[C@@H](O)C(=O)NCCC(=O)NCc1ccccc1` are 67 µM, 1.15 s⁻¹ and 17 mM⁻¹ s⁻¹.
In the same order, the values of `CCCC(=O)NCCNC(=O)CCNC(=O)[C@H](O)C(C)(C)CO` are 240 µM, 1.09 s⁻¹ and 4.5 mM⁻¹ s⁻¹.
In the case of `CC(C)(CO)[C@@H](O)C(=O)NCCC(=O)NCc1ccccn1`, in the assay with Escherichia coli [1], the Km is 50 µM and the kcat turned out to be 1.02 s⁻¹. Moreover, in the assay on Escherichia coli [2], the kcat/Km is 20 mM⁻¹ s⁻¹.
In the same order, the values of `CCCc1cn(CCCNC(=O)[C@H](O)C(C)(C)CO)nn1` are 1000 µM, 0.49 s⁻¹ and 0.5 mM⁻¹ s⁻¹.
With `CCCCCNC(=O)CCNC(=O)[C@H](O)C(CC)(CC)CO`, in the assay on Escherichia coli [1], the Michaelis constant (Km) came out at 1200 µM and the kcat worked out at 0.28 s⁻¹. The kcat/Km in the assay on Escherichia coli [2] stood at 0.2 mM⁻¹ s⁻¹.
On to `CC(C)(CO)[C@@H](O)C(=O)NCCNC(=N)N`, for which the result with Escherichia coli [3] was inactive. Further, in the assay with Escherichia coli [4], the inhibition result was “inactive”.
